{
  "source": "patent US11712446B2",
  "about": "“Methods of mobilizing marrow infiltrating lymphocytes and uses thereof” (GLYCOMIMETICS, INC., priority 2017, dated 2023)",
  "assay_type_in_all_cases": "in vivo, BALB/c mice",
  "key": {"CD8+ T cells": {"test_system": "CD8+ T cells", "test": "Flow cytometric CD62L/CD44 phenotype of CD8+ T cells in peripheral blood and bone marrow of CT26 immune mice (MIL mobilization)", "settings": "12 hours after final dose", "protocol": "(§1) Protocol for Detection and Mobilization of MILs in the CT-26 tumor model: GMI-1271 is a potent, small-molecule, glycomimetic antagonist of E-selectin. GMI-1359 is a potent, small-molecule glycomimetic dual antagonist, targeting E-selectin and CXCR4. The effects of inhibiting either E-selectin with GMI-1271 or E-selectin and CXCR4 with GMI-1359 on MIL mobilization was tested in BALB/c mice that had been induced to reject the syngeneic CT26 colon carcinoma via anti-CTLA-4 T cell checkpoint antibody.\nTreatment with anti-CTLA-4 for all mice implanted with CT26.WT began on Day 3. All mice were dosed intraperitoneally on Days 3, 6, 10, 13, and 17. All mice were dosed according to individual body weight on the day of treatment (0.2 mg/20 g).\nOn Day 25, mice without tumors following CTLA-4 treatment were distributed into the four “Tumor Immune” treatment groups indicated in Table 1 such that the mean body weight within each group was within 10% of the overall mean.\n(§2) Treatment for “Tumor Immune” groups 1-4 began on Day 25. The Vehicle was dosed intraperitoneally every 12 hours for 3 days (Days 25-27). GMI-1271 and GMI-1359 were dosed intraperitoneally at 40 mg/kg every 12 hours for 3 days (Days 25-27). G-CSF was dosed at 0.125 mg/kg subcutaneously every 12 hours for 3 days (Days 25-27).\nA “Nonimmune” group 5 was populated with age-matched, naive non-tumor bearing mice.\n(§3) At 12 hours after the final dose of test agents, all mice in groups 1-5 (treatment “Tumor Immune” groups 1-4 and control “Nonimmune” group 5) were euthanized for blood and bone marrow collection.\nFlow cytometric analysis was used to determine CD62L and CD44 expression on CD8+ T cells in whole blood and bone marrow samples. Secondary analysis included AH-1 Dextramer analysis on the three tissue types and IFNγ production in pooled blood and bone marrow samples. Samples were acquired using a 4 laser, 14 color Attune NxT Flow Cytometer with autosampler. CD62L and CD44 events were gated on CDS+ T cells."}, "CD8+ MILs": {"test_system": "CD8+ MILs", "test": "IFNγ production by bone marrow CD8+ MILs following in vitro stimulation with irradiated CT-26 tumor cells or AH1", "settings": "tumor immunized mice, 40 mg/kg IP every 12 hours for 3 days, FIG. 2", "protocol": "as §1, §2, §3\n(§4) Flow cytometric analysis was used to determine CD62L and CD44 expression on CD8+ T cells in whole blood and bone marrow samples. Secondary analysis included AH-1 Dextramer analysis on the three tissue types and IFNγ production in pooled blood and bone marrow samples. Samples were acquired using a 4 laser, 14 color Attune NxT Flow Cytometer with autosampler. […]"}, "[1]": {"test_system": "CD8+ T-cells in peripheral blood", "test": "Percent of CD8+ lymphocytes in peripheral blood armed to produce IFNγ", "settings": "CT26 immune mice; GMI compounds 40 mg/kg IP, G-CSF 0.125 mg/kg SC, every 12 hours for 3 days; 12 hours after final dose; FIG. 3", "protocol": "as §1, §2, §3, §4"}},
  "data": [
    {"molecule": "CC[C@H]1C[C@@H](C(=O)NCCNC(=O)CCOCCOCCOCCOCCOCCOCCOCCOCCOCCOCCOCCOC)C[C@@H](O[C@@H]2O[C@H](CO)[C@H](O)[C@H](O[C@@H](CC3CCCCC3)C(=O)[O-])[C@H]2NC(C)=O)[C@@H]1O[C@@H]1O[C@@H](C)[C@@H](O)[C@@H](O)[C@@H]1O.[Na+]", "note": "[GMI-1271]", "values": [
      {"measurement": "redistribution of effector memory (EM, CD62L-CD44+) CD8+ T cells", "setting": "CD8+ T cells; 40 mg/kg IP every 12 hours for 3 days, FIG. 1C", "result": "not effected"},
      {"measurement": "mobilization of naïve (CD62L+CD44−) CD8+ T cells into the peripheral blood", "setting": "CD8+ T cells; GMI compounds 40 mg/kg IP, G-CSF 0.125 mg/kg SC, every 12 hours for 3 days, FIG. 1A", "result": "mobilized"},
      {"measurement": "mobilization of central memory (CM, CD62L+CD44+) CD8+ T cells into the peripheral blood", "setting": "CD8+ T cells; GMI compounds 40 mg/kg IP, G-CSF 0.125 mg/kg SC, every 12 hours for 3 days, FIG. 1B", "result": "mobilized"},
      {"measurement": "functional activity of bone marrow CD8+ MILs (IFNγ production) after in vitro stimulation", "setting": "CD8+ MILs", "result": "primed to respond to both AH1 and whole tumor cells"},
      {"measurement": "percentage of CD8+ T-cells in peripheral blood primed to produce IFNγ", "setting": "[1]", "result": "markedly increased"}
    ]}
  ]
}
